According to US6737383B1, “Herbicidal oxadiazolidines” (priority 1999, dated 2004):

How the values were obtained:
bedstraw = assay: Test B pre/postemergence bedstraw; type: in vivo, Galium aparine
Method in brief: (§1)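 Herbicidal effect was estimated by eye on a ten-point control scale after plants spent twelve to sixteen days in a greenhouse following soil or foliar treatment. Foliar sprays targeted plants at one to four leaves; all doses were formulated in a non-phytotoxic solvent with surfactant.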

blackgrass = assay: Test B pre/postemergence blackgrass; type: in vivo, Alopecurus myosuroides
Method in brief: as §1

surinam grass = assay: Test B pre/postemergence surinam grass; type: in vivo, Brachiaria decumbens
Method in brief: as §1

cocklebur = assay: Test B pre/postemergence cocklebur; type: in vivo, Xanthium strumarium
Method in brief: as §1

corn = assay: Test B pre/postemergence corn; type: in vivo, Zea mays
Method in brief: as §1

giant foxtail = assay: Test B pre/postemergence giant foxtail; type: in vivo, Setaria faberii
Method in brief: as §1

morningglory = assay: Test B pre/postemergence morningglory; type: in vivo, Ipomoea hederacea
Method in brief: as §1

pigweed = assay: Test B pre/postemergence pigweed; type: in vivo, Amaranthus retroflexus
Method in brief: as §1

rape = assay: Test B pre/postemergence rape; type: in vivo, Brassica napus
Method in brief: as §1

sugar beet = assay: Test B pre/postemergence sugar beet; type: in vivo, Beta vulgaris
Method in brief: as §1

velvetleaf = assay: Test B pre/postemergence velvetleaf; type: in vivo, Abutilon theophrasti
Method in brief: as §1

purple nutsedge = assay: Test B pre/postemergence purple nutsedge; type: in vivo, Cyperus rotundus
Method in brief: as §1

rice = assay: Test B flood test rice; type: in vivo, Oryza sativa
Method in brief: (§2)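 Flood test on plants grown to the 2-leaf stage; treated plants kept in greenhouse twelve to sixteen days, then visually rated against controls on a 0 (no effect) to 10 (complete control) scale.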

duck salad = assay: Test B flood test duck salad; type: in vivo, Heteranthera limosa
Method in brief: as §2

bamyardgrass = assay: Test B flood test barnyardgrass; type: in vivo, Echinochloa crus-galli
Method in brief: as §2

[1] = Preemergence, Rate 62 g/ha, scale of 0 to 10 where 0 is no effect and 10 is complete control
[2] = Preemergence, Rate 250 g/ha, scale of 0 to 10 where 0 is no effect and 10 is complete control
[3] = Preemergence, Rate 500 g/ha, scale of 0 to 10 where 0 is no effect and 10 is complete control
[4] = Rate 62 g/ha, Postemergence, scale of 0 to 10 where 0 is no effect and 10 is complete control
[5] = Rate 125 g/ha, Postemergence, scale 0 to 10
[6] = Rate 125 g/ha, Preemergence, scale of 0 to 10 where 0 is no effect and 10 is complete control
[7] = Rate 500 g/ha, Postemergence, scale 0 to 10, 0 no effect, 10 complete control
[8] = Preemergence, Rate 31 g/ha, visual rating, scale 0 to 10 (0 no effect, 10 complete control)
[9] = Rate 31 g/ha, Postemergence, scale 0 to 10
[10] = Rate 62 g/ha, headed Pre-emergence (flood test species), scale 0 to 10 (0 no effect, 10 complete control)
[11] = Rate 125 g/ha, Pre-emergence, flood test species, scale 0 to 10 where 0 is no effect and 10 is complete control
[12] = Rate 250 g/ha, Pre-emergence, flood-test species, scale 0 to 10, 0 is no effect, 10 is complete control
[13] = Rate 500 g/ha, Pre-emergence, flood test species, scale 0 to 10 (0 no effect, 10 complete control)

In the case of `CC(C)N(C(=O)n1oc(=O)n(N(C)C)c1=O)c1ccccc1` [Compound 225], the “Bedstraw plant response rating” value (bedstraw; [1]) is reported as 0, the “Bedstraw plant response rating” value (bedstraw; [2]) is reported as 0 and the “Plant response rating, Bedstraw” value (bedstraw; [3]) is reported as 2. The “Bedstraw plant response rating” value (bedstraw; [4]) was 0, the “Bedstraw plant response rating” value (bedstraw; [5]) was 0 and the “Bedstraw plant response rating” value (bedstraw; [6]) was 0. The “Plant response rating (0 to 10; 0 is no effect, 10 is complete control), Bedstraw” value (bedstraw; Rate 250 g/ha, Postemergence) was 0, the “Bedstraw plant response rating” value (bedstraw; [7]) was 0 and the “Blackgrass plant response rating” value (blackgrass; [8]) was 0. For the same compound, the “Blackgrass plant response rating” value (blackgrass; [1]) was 2, the “Blackgrass plant response rating” value (blackgrass; [2]) was 10 and the “Plant response rating, Blackgrass” value (blackgrass; [3]) was 10. The “Blackgrass plant response rating” value (blackgrass; [9]) was 0, the “Blackgrass plant response rating” value (blackgrass; [4]) was 6 and the “Blackgrass plant response rating” value (blackgrass; [5]) was 9. The “Blackgrass plant response rating” value (blackgrass; [6]) was 10, the “Plant response rating (0 to 10; 0 is no effect, 10 is complete control), Blackgrass” value (blackgrass; Rate 250 g/ha, Postemergence) was 9 and the “Blackgrass plant response rating” value (blackgrass; [7]) was 8. The “B. signalgrass plant response rating” value (surinam grass; [8]) was 0, the “B. signalgrass plant response rating” value (surinam grass; [1]) was 1 and the “B. signalgrass plant response rating” value (surinam grass; Preemergence, Rate 250 g/ha, scale 0 to 10, 0 is no effect, 10 is complete control) was 7. The “Plant response rating, B. signalgrass” value (surinam grass; [3]) was 7, the “B. signalgrass plant response rating” value (surinam grass; [9]) was 0 and the “B. signalgrass plant response rating” value (surinam grass; [4]) was 2. The “B. signalgrass plant response rating” value (surinam grass; Rate 125 g/ha, Postemergence, scale 0 (no effect) to 10 (complete control)) was 5, the “B. signalgrass plant response rating” value (surinam grass; [6]) was 7 and the “Plant response rating (0 to 10; 0 is no effect, 10 is complete control), B. signalgrass” value (surinam grass; Rate 250 g/ha, Postemergence) was 5. The “B. signalgrass plant response rating” value (surinam grass; [7]) was 9, the “Cocklebur plant response rating” value (cocklebur; [8]) was 0 and the “Cocklebur plant response rating” value (cocklebur; [1]) was 0. The “Cocklebur plant response rating” value (cocklebur; [2]) was 2, the “Plant response rating, Cocklebur” value (cocklebur; [3]) was 2 and the “Cocklebur plant response rating” value (cocklebur; [9]) was 0. For the same compound, the “Cocklebur plant response rating” value (cocklebur; [4]) was 0, the “Cocklebur plant response rating” value (cocklebur; [5]) was 0 and the “Cocklebur plant response rating” value (cocklebur; [6]) was 2. The “Plant response rating (0 to 10; 0 is no effect, 10 is complete control), Cocklebur” value (cocklebur; Rate 250 g/ha, Postemergence) was 0, the “Cocklebur plant response rating” value (cocklebur; [7]) was 0 and the “Corn plant response rating” value (corn; [8]) was 0. For the same compound, the “Corn plant response rating” value (corn; [1]) was 0, the “Corn plant response rating” value (corn; [2]) was 4 and the “Plant response rating, Corn” value (corn; [3]) was 6. For the same compound, the “Corn plant response rating” value (corn; [9]) was 0, the “Corn plant response rating” value (corn; [4]) was 0 and the “Corn plant response rating” value (corn; [5]) was 2. The “Corn plant response rating” value (corn; [6]) was 3, the “Plant response rating (0 to 10; 0 is no effect, 10 is complete control), Corn” value (corn; Rate 250 g/ha, Postemergence) was 2 and the “Corn plant response rating” value (corn; [7]) was 6. The “Giant foxtail plant response rating” value (giant foxtail; [8]) was 8, the “Giant foxtail plant response rating” value (giant foxtail; [1]) was 8 and the “Giant foxtail plant response rating” value (giant foxtail; [2]) was 10. The “Plant response rating, Giant foxtail” value (giant foxtail; [3]) was 10, the “Giant foxtail plant response rating” value (giant foxtail; [9]) was 0 and the “Giant foxtail plant response rating” value (giant foxtail; [4]) was 8. The “Giant foxtail plant response rating” value (giant foxtail; [5]) was 8, the “Giant foxtail plant response rating” value (giant foxtail; [6]) was 10 and the “Plant response rating (0 to 10; 0 is no effect, 10 is complete control), Giant foxtail” value (giant foxtail; Rate 250 g/ha, Postemergence) was 8. For the same compound, the “Giant foxtail plant response rating” value (giant foxtail; [7]) was 9, the “Morningglory plant response rating” value (morningglory; [8]) was 0 and the “Morningglory plant response rating” value (morningglory; [1]) was 0. The “Morningglory plant response rating” value (morningglory; [2]) was 4, the “Plant response rating, Morningglory” value (morningglory; [3]) was 8 and the “Morningglory plant response rating” value (morningglory; [9]) was 2. The “Morningglory plant response rating” value (morningglory; [4]) was 2, the “Morningglory plant response rating” value (morningglory; [5]) was 3 and the “Morningglory plant response rating” value (morningglory; [6]) was 4. The “Plant response rating (0 to 10; 0 is no effect, 10 is complete control), Morningglory” value (morningglory; Rate 250 g/ha, Postemergence) was 6, the “Morningglory plant response rating” value (morningglory; [7]) was 6 and the “Redroot pigweed plant response rating” value (pigweed; [8]) was 6. The “Redroot pigweed plant response rating” value (pigweed; [1]) was 6, the “Redroot pigweed plant response rating” value (pigweed; [2]) was 10 and the “Plant response rating, Redroot pigweed” value (pigweed; [3]) was 10. For the same compound, the “Redroot pigweed plant response rating” value (pigweed; [9]) was 0, the “Redroot pigweed plant response rating” value (pigweed; [4]) was 0 and the “Redroot pigweed plant response rating” value (pigweed; [5]) was 0. The “Redroot pigweed plant response rating” value (pigweed; [6]) was 7, the “Plant response rating (0 to 10; 0 is no effect, 10 is complete control), Redroot pigweed” value (pigweed; Rate 250 g/ha, Postemergence) was 0 and the “Redroot pigweed plant response rating” value (pigweed; [7]) was 2. For the same compound, the “Rape plant response rating” value (rape; [8]) was 0, the “Rape plant response rating” value (rape; [1]) was 0 and the “Rape plant response rating” value (rape; [2]) was 0. The “Plant response rating, Rape” value (rape; [3]) was 6, the “Rape plant response rating” value (rape; [9]) was 0 and the “Rape plant response rating” value (rape; [4]) was 0. For the same compound, the “Rape plant response rating” value (rape; [5]) was 0, the “Rape plant response rating” value (rape; [6]) was 0 and the “Plant response rating (0 to 10; 0 is no effect, 10 is complete control), Rape” value (rape; Rate 250 g/ha, Postemergence) was 0. The “Rape plant response rating” value (rape; [7]) was 2, the “Sugarbeets plant response rating” value (sugar beet; [8]) was 0 and the “Sugarbeets plant response rating” value (sugar beet; [1]) was 0. For the same compound, the “Sugarbeets plant response rating” value (sugar beet; [2]) was 5, the “Plant response rating, Sugarbeets” value (sugar beet; [3]) was 6 and the “Sugarbeets plant response rating” value (sugar beet; [4]) was 0. For the same compound, the “Sugarbeets plant response rating” value (sugar beet; [5]) was 0, the “Sugarbeets plant response rating” value (sugar beet; [6]) was 2 and the “Plant response rating (0 to 10; 0 is no effect, 10 is complete control), Sugarbeets” value (sugar beet; Rate 250 g/ha, Postemergence) was 3. The “Sugarbeets plant response rating” value (sugar beet; [7]) was 2, the “Velvetleaf plant response rating” value (velvetleaf; [8]) was 0 and the “Velvetleaf plant response rating” value (velvetleaf; [1]) was 4. For the same compound, the “Velvetleaf plant response rating” value (velvetleaf; [2]) was 6, the “Plant response rating, Velvetleaf” value (velvetleaf; [3]) was 7 and the “Velvetleaf plant response rating” value (velvetleaf; [4]) was 0. The “Velvetleaf plant response rating” value (velvetleaf; [5]) was 0, the “Velvetleaf plant response rating” value (velvetleaf; [6]) was 5 and the “Plant response rating (0 to 10; 0 is no effect, 10 is complete control), Velvetleaf” value (velvetleaf; Rate 250 g/ha, Postemergence) was 0. The “Velvetleaf plant response rating” value (velvetleaf; [7]) was 3, the “Nutsedge plant response rating” value (purple nutsedge; [8]) was 0 and the “Nutsedge plant response rating” value (purple nutsedge; [1]) was 7. The “Nutsedge plant response rating” value (purple nutsedge; [2]) was 8, the “Plant response rating, Nutsedge” value (purple nutsedge; [3]) was 10 and the “Nutsedge plant response rating” value (purple nutsedge; [9]) was 0. For the same compound, the “Nutsedge plant response rating” value (purple nutsedge; [4]) was 0, the “Nutsedge plant response rating” value (purple nutsedge; [5]) was 0 and the “Nutsedge plant response rating” value (purple nutsedge; [6]) was 7. The “Plant response rating (0 to 10; 0 is no effect, 10 is complete control), Nutsedge” value (purple nutsedge; Rate 250 g/ha, Postemergence) was 0, the “Nutsedge plant response rating” value (purple nutsedge; [7]) was 2 and the “Rice plant response rating” value (rice; [10]) was 0. The “Rice plant response rating” value (rice; [11]) was 0, the “Rice plant response rating” value (rice; [12]) was 0 and the “Rice plant response rating” value (rice; [13]) was 0. The “Ducksalad plant response rating” value (duck salad; [10]) was 0, the “Ducksalad plant response rating” value (duck salad; [11]) was 0 and the “Ducksalad plant response rating” value (duck salad; [12]) was 0. For the same compound, the “Ducksalad plant response rating” value (duck salad; [13]) was 0, the “Barnyardgrass plant response rating” value (bamyardgrass; [10]) was 0 and the “Barnyardgrass plant response rating” value (bamyardgrass; [11]) was 0. The “Barnyardgrass plant response rating” value (bamyardgrass; [12]) was 0 and the “Barnyardgrass plant response rating” value (bamyardgrass; [13]) was 0.
